Common to all, as to assay type: cell-based
Experiment [1] deals with T1, BTK-GFP (Homo sapiens, UniProt Q06187+Q96SW2).
T1 construct: expressed in transfected cells; host or cells: HEK293A (Invitrogen R70507), lentiviral transduction with pLenti6-BTK-GFP-Ires-RFP, blasticidin selection
The experiment is described as follows: BTK-GFP protein abundance flow cytometry assay in HEK293A cells. The settings on record: HEK293A BTK-GFP-iresRFP cells, 24 h; for DC50: GFP signal by flow cytometry, concentration at which 50% maximal degradation was observed; for BTK deg Amax: % protein remaining at the concentration at which maximum degradation is seen. Put shortly: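 HEK293A cells stably expressing bicistronic BTK-GFP-IRES-RFP (C-terminal GFP tag) via lentiviral vector. Degradation read by flow cytometry as loss of GFP signal after degrader treatment. DC50 is concentration giving 50% maximal degradation; Amax is % protein remaining at maximal degradation.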
On the technique in general: In flow cytometry, cells or beads pass a laser one at a time.

For experiment [2], the system named is OCI-LY3 cells. Nature of the experiment: Resazurin cell viability (proliferation) assay in OCI-LY3 DLBCL cells. The conditions noted are these: OCI-LY3 cells (BTK independent), 72 h, 50% growth inhibition vs vehicle, read-out: OCI-LY3 Prol GI50. Put shortly:
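Cells were seeded at 1×10^4 per well and dosed 3 h later: 8-point 1:4 dilutions from 10 μM (OCI-LY3), in triplicate, 72 h at 37 °C. Resazurin (13 μg/ml final) was added for the last 2 h and fluorescence read at 530/600 nm. GI50 is relative to DMSO vehicle, typically from ≥2 independent experiments.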
In general terms: Alamar Blue is a resazurin reagent that responds to reducing activity.

Experiment [3] deals with TMD8 cells. The experiment is described as follows: Resazurin cell viability (proliferation) assay in TMD8 DLBCL cells. The conditions noted are these: TMD8 cells (BTK dependent), 72 h, 50% growth inhibition vs vehicle, read-out: TMD8 Prol GI50. The procedure, abridged: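 TMD8 cells were seeded at 1×10^4 per well and treated 3 h later with compound, in an 8-point 1:4 dilution series starting at 1 μM, or DMSO, for 72 h at 37° C. Resazurin was added at 13 μg/ml final for the last 2 h, and fluorescence was read at ex 530/em 600 nm. GI50 versus vehicle was derived by curve fitting from triplicates.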

Molecules are shown by their SMILES. Read-outs that look alike come from different tables or passages of the source.

T1 sequence (Q06187 whole entry): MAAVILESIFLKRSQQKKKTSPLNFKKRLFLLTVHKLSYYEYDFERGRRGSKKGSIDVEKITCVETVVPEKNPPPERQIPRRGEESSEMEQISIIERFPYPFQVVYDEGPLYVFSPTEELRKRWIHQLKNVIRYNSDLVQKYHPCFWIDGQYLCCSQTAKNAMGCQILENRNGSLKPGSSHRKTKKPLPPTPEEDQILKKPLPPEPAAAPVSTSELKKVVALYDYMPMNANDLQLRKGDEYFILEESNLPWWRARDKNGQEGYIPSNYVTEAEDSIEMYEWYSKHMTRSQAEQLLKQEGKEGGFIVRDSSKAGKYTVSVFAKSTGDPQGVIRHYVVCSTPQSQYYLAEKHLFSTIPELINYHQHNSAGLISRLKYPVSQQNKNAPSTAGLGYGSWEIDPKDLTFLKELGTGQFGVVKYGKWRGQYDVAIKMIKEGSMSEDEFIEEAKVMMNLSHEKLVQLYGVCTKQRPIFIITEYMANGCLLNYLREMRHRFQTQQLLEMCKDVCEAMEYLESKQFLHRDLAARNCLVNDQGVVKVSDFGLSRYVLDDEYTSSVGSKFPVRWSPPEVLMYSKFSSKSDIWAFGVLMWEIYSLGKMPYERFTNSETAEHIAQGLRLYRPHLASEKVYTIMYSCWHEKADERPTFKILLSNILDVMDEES
T1 sequence (Q96SW2 whole entry): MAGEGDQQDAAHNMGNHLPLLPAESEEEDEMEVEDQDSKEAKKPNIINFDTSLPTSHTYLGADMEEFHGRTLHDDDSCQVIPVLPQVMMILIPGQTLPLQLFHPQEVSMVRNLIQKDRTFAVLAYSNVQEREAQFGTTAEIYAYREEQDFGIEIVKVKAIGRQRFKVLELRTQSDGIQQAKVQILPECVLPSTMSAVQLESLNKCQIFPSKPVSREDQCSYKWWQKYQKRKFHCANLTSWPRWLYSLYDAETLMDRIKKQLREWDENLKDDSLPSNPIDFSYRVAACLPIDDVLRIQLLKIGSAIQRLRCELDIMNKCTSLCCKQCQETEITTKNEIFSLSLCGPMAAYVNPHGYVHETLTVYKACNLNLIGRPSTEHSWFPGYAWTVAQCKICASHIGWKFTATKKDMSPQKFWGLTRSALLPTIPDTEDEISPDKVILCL
T1 sequence (Q16531 whole entry partner): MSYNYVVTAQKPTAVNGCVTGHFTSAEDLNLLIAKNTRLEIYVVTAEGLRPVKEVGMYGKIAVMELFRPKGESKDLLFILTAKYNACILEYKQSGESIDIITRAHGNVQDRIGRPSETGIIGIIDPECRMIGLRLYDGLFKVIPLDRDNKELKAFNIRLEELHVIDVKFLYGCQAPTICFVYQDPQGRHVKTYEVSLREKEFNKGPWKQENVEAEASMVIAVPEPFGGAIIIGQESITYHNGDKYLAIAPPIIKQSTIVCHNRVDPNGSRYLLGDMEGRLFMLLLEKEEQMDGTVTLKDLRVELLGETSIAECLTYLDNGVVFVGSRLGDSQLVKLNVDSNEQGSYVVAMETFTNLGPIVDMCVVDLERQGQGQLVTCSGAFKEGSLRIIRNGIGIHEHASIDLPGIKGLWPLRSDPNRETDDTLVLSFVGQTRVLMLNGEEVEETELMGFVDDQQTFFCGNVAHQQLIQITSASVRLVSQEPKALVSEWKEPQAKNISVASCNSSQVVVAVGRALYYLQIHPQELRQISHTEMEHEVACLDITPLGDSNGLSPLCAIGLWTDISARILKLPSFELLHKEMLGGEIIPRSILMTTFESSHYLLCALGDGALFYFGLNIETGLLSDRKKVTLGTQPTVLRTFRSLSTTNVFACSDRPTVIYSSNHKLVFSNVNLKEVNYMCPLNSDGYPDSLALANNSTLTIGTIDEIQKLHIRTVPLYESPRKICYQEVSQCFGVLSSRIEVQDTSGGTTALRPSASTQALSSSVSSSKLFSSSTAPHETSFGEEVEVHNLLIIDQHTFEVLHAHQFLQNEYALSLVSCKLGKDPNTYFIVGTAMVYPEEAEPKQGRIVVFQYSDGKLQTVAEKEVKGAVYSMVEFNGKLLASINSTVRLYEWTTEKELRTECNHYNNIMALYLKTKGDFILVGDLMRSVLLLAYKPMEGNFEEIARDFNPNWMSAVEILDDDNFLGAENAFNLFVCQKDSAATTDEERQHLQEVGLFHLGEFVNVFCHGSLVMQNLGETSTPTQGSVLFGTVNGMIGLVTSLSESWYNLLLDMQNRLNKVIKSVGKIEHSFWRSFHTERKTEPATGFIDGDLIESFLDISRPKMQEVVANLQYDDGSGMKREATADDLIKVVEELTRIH

Consider `COc1ccc(C(=O)N2CCC3(CCN(CCCc4ccc(-c5cc6c(-c7cc(F)cc(NC(=O)c8ccc(C(C)(C)O)cc8F)c7C)ncnc6[nH]5)cc4)CC3)CC2)cc1N1CCC(=O)NC1=O` [Compound 11, N-(3-(6-(4-(3-(9(3-(2,4-Dioxotetrahydropyrimidin-1(2H)-yl)-4-methoxybenzoyl)-3,9-diazaspiro[5.5]undecan-3-yl)propyl)phenyl)-7H-pyrrolo[2,3-d]pyrimidin-4-yl)-5-fluoro-2-methylphenyl)-2-fluoro-4-(2-hydroxypropan-2-yl)benzamide], for which, in experiment [1], half-maximal degradation (DC50) was put at 5 nM and the “BTK deg Amax” value is listed as 4.7%. For the same compound, the GI50 (as a rule, the concentration at which growth is held to half of that of the control) in experiment [2] (Homo sapiens) was over 10000 nM. For the same compound, the GI50 in experiment [3] (Homo sapiens) was 0.84 nM.

Take `COc1ccc(C(=O)N2CCC(O[C@H]3CC[C@H](OCc4ccc(-c5cc6c(-c7cc(F)cc(NC(=O)c8ccc(C(C)(C)O)cc8F)c7C)ncnc6[nH]5)cc4)CC3)CC2)cc1N1CCC(=O)NC1=O` [Compound 56, N-(3-(6-(4-((((1r,4r)-4-((1-(3-(2,4-dioxotetrahydropyrimidin-1(2H)-yl)-4-methoxybenzoyl)piperidin-4-yl)oxy)cyclohexyl)oxy)methyl)phenyl)-7H-pyrrolo[2,3-d]pyrimidin-4-yl)-5-fluoro-2-methylphenyl)-2-fluoro-4-(2-hydroxypropan-2-yl)benzamide]: the DC50 – broadly, the concentration giving 50% degradation – in experiment [1] is 4 nM. In addition, the “BTK deg Amax” value in experiment [1] turned out to be 4.4%. The GI50 came out at 6340 nM in experiment [2] and 15.4 nM in experiment [3].

`COc1ccc(C(=O)N2CCC(OC(CO)CN3CCC(Oc4ccc(-c5cc6c(-c7cc(F)cc(NC(=O)c8ccc(C(C)(C)O)cc8F)c7C)ncnc6[nH]5)cc4)CC3)CC2)cc1N1CCC(=O)NC1=O` (racemic) [Compound 18, rac-N-(3-(6-(4-((1-(2-((1-(3-(2,4-Dioxotetrahydropyrimidin-1(2H)-yl)-4-methoxybenzoyl)piperidin-4-yl)oxyl)-3-hydroxypropyl)piperidin-4-yl)oxyl)phenyl)-7H-pyrrolo[2,3-d]pyrimidin-4-yl)-5-fluoro-2-methylphenyl)-2-fluoro-4-(2-hydroxypropan-2-yl)benzamide] yielded a DC50 in experiment [1] of 10.8 nM. Also, the “BTK deg Amax” value in experiment [1] is 3.4%. In addition, the GI50 in experiment [2] (Homo sapiens) is 4320 nM; in experiment [3] (Homo sapiens), 1.58 nM.

Regarding `COc1ccc(C(=O)N2CCC3(CCN(Cc4ccc(-c5cc6c(-c7cc(F)cc(NC(=O)c8ccc(C(C)(C)O)cc8F)c7C)ncnc6[nH]5)cc4)CC3)[C@H](CO)C2)cc1N1CCC(=O)NC1=O` (single isomer, unassigned) [Compound 3], in experiment [1], it took 19.1 nM to reach half-maximal degradation (DC50) and the “BTK deg Amax” value is reported as 3.6%. Further, the GI50 in experiment [2] (Homo sapiens) is over 10000 nM. In experiment [3] (Homo sapiens), the GI50 turned out to be 2.24 nM.

`COc1ccc(C(=O)NCCCCN2CCN(Cc3ccc(-c4cc5c(-c6cc(F)cc(NC(=O)c7ccc(C(C)(C)O)cc7F)c6C)ncnc5[nH]4)cc3)CC2)cc1N1CCC(=O)NC1=O` [Compound 26, N-(3-(6-(4-((4-(4-(3-(2,4-Dioxotetrahydropyrimidin-1(2H)-yl)-4-methoxybenzamido)butyl)piperazin-1-yl)methyl)phenyl)-7H-pyrrolo[2,3-d]pyrimidin-4-yl)-5-fluoro-2-methylphenyl)-2-fluoro-4-(2-hydroxypropan-2-yl)benzamide] returned a DC50 in experiment [1] of 25 nM. Moreover, in experiment [1], the “BTK deg Amax” value worked out at 4.3%. Also, the figures for the GI50 in experiment [2] (Homo sapiens) and in experiment [3] (Homo sapiens) were 4760 nM and 1.92 nM, respectively.

With `COc1ccc(C(=O)N2CCN(CCN3CCC(OCc4ccc(-c5cc6c(-c7cc(F)cc(NC(=O)c8ccc(C(C)(C)O)cc8F)c7C)ncnc6[nH]5)cc4)CC3)CC2)cc1N1CCC(=O)NC1=O` [Compound 21, N-(3-(6-(4-(((1-(2-(4-(3-(2,4-dioxotetrahydropyrimidin-1(2H)-yl)-4-methoxybenzoyl)piperazin-1-yl)ethyl)piperidin-4-yl)oxyl)methyl)phenyl)-7H-pyrrolo[2,3-d]pyrimidin-4-yl)-5-fluoro-2-methylphenyl)-2-fluoro-4-(2-hydroxypropan-2-yl)benzamide], in experiment [1], the DC50 was 1.8 nM and the “BTK deg Amax” value is on record as 3.7%. Further, the GI50 in experiment [2] (Homo sapiens) amounted to 6830 nM. Besides, the GI50 in experiment [3] (Homo sapiens) came out at 0.6 nM.

The values are drawn from patent US12441733B2, “Substituted 2,4-dioxotetrahydropyrimidines as intermediates in the synthesis of bruton's tyrosine kinase inhibitors” (Novartis AG, priority 2018, dated 2025).
